The record followed here is patent EP4385495A1, “NANOSYSTEMS FOR THE ENCAPSULATION OF THERAPEUTIC AGENTS” (National Technical University of Athens, priority 2022, dated 2024).

The subject of one assay is IL-6 in RAW264.7 cells. Nature of the assay: IL-6 ELISA in supernatants of LPS-stimulated RAW264.7 cells. Type of assay: cell-based, mouse. The note with it: 48h after dilution of nanosystems. The protocol:
The assay was carried using the MOUSE IL-6 ELISA KIT by ORIGENE_(CATALOG No. EA100128), which was based on the evaluation on Microwell Plates coated with antibody to mouse IL-6. The general protocol provided by the supplier for the evaluation of the samples as well as the development of the standard curve of IL-6 was followed. All reagents and working standards were prepared as directed in the instruction form and determined the number of microwell strips required to test the desired number of samples plus appropriate number of wells needed for running blanks and standards. Then 100µL of Standard, control, or sample, were added per well and the plate was cover with the adhesive strip provided and incubated for 1.5 hours at 37°C.
Afterwards, each well was aspirated and washed, and the process was repeated three times for a total of four washes by filling each well with Wash Buffer. […]
After incubation washing was carried out again, followed by the addition of the working solution of Streptavidin-HRP to each well. […] Finally, the plate was gently tapped to ensure thorough mixing and determine the optical density (OD) of each well immediately, using a microplate reader set to 450 nm (optionally 630nm as the reference wavelength;610-650nm is acceptable).
The OD measured for all samples is reflected on the IL-6 standard curve which was developed following the same steps. […] This quantitative assay is based on the sandwich principal as previously described, utilizing the cell culture supernatants for the evaluation of IL-6 protein presence in LPS-treated cells in the presence of the evaluated samples.
For this protocol, RAW264.7 cells were treated with LPS prior to the measurement to stimulate IL-6 production and results are reported as pg/ml of IL-6 corresponding to the standard curve of IL-6 developed ([…]). […] Table 3: Anti-inflammatory potential of the samples expressed as IL-6 presence in LPS-stimulated RAW264.7 cells supernatants.
In general terms: In an ELISA, binding on a coated surface is turned into a signal by an enzyme label.

The test system of the next assay is MMP-13. Briefly: MMP-13 ELISA in secretions of TNFα-stimulated chondrocytes. Type of assay: cell-based, human. The note with it: for Mean % relative MMP-13 secretion (72h): co-treatment with TNFα, normalized to negative control (TNFα only). The source says:
Matrix Mettaloproteinase 13 (MMP-13) is the main culprit in the destabilization of the anabolic/catabolic balance in the articular joint. MMP-13 […] balance towards catabolism and collagen II degradation which aggravates the OA pathology and is an enzyme that is secreted by chondrocytes in the extracellular environment. […] A decrease in MMP-13 levels is desirable, correlates with less degradation of cartilage and is widely used in the OA research field as a histopathological marker to evaluate amelioration of OA cellular pathology in the joint following an intervention. Finding Nanoparticles that can reduce MMP-13 levels in the assay is a promising lead for a favorable effect in a pre-clinical animal model in vivo. […] The results in Table 6 are the mean relative values from at least 3 independent repetitions of the experiments. Table 6. MMP-13 ELISA results as normalized values relative to negative control (NC, TNFα-stimulated cells without nanosystems) from 3 independent experiments. The standard deviations are omitted for simplicity. Samples' coding: S1=Naringin pure compound, S2=Naringin encapsulated in PLA nanoparticles [PLA[NAR]], S3=Naringin encapsulated in PLA nanoparticles coated with chitosan CS[PLA[NAR]], and S4=Blank PLA nanoparticles coated with chitosan, CS[PLA[---]].

Assay [1] has as its system experimental animal model of osteoarthritis (OA). Nature of the assay: von Frey mechanical allodynia test in osteoarthritis rat model. The note with it: for Paw Withdrawal Threshold (%): right paw/(right paw + left paw)*100. Type of assay: in vivo, Wistar rats. The protocol:
Healthy adult male Wistar rats (150-200 g) were used for the study, with water and food ad libitum, at a constant temperature of 22°C and controlled lighting (12 h light/12 h dark cycle). […] As far as the dispersion procedure of the injectables is concerned, all the natural compounds were dissolved in saline solution, whereas the studied nanoparticles were mechanically grinded in a mortar and pestle set with saline solution and Tween 20 (2% w/v) and heated at 36 °C before each treatment. There were six treatments administered every 10 days. At the end of the experiment rats were euthanized and both knees were collected for histological analysis. Rats were anesthetized with chloral hydrate. The right knee joints of Group I were injected with normal saline solution and served as a control. Animals from the groups II, III, IV, V, VI, VII were injected with collagenase type II (Clostridium histolyticum). Collagenase (125 collagen digestion unit/mg) was dissolved in saline, and it was injected intra-articularly into the right knee joint twice on days 1 and 4 of the experiment ([…] and S. Fakurazi. Collagenase and sodium iodoacetate-induced experimental osteoarthritis model in Sprague dawley rats. Asian J. Sci. Res. 2: 1-13, 2009). The left knees of all animals were left untreated as a control. For the evaluation of the effectiveness and time of release of the encapsulated compounds, all animals were subjected to a series of behavioral testing in addition to the measurements of body weight and knees diameter change. The experimental protocol of the present study followed the combination of three different behavioral tests, which are von Frey mechanical allodynia test, grid walking and slope walking test. Behavioral tests are performed in three phases, at the beginning before the start of treatment, in the middle of treatment (approximately 35-40 days) and at the end (after the 70th day). Mechanical allodynia was tested by the von Frey method which detects pain threshold as the paw withdrawal response. For the testing, rats were placed into plastic chambers that allow access to the plantar surface of the hind paws. […] In Table 15 below, the nociceptive threshold is defined as: nociceptive threshold (%) = ([…])/((nociceptive; threshold on right paw + nociceptive threshold of left paw))*100 [formula] Table 13: von Frey-paw withdrawal threshold (g)

As to `C[C@@H]1O[C@@H](O[C@H]2[C@H](Oc3cc(O)c4c(c3)O[C@H](c3ccc(O)cc3)CC4=O)O[C@H](CO)[C@@H](O)[C@@H]2O)[C@H](O)[C@H](O)[C@H]1O` [S1 [NAR], Naringin], the IL-6 is 720,000 pg/ml in the assay on IL-6 in RAW264.7 cells (25 µM), 700,000 pg/ml in the assay on IL-6 in RAW264.7 cells (50 µM) and 455,000 pg/ml in the assay on IL-6 in RAW264.7 cells (100 µM). For the same molecule, the “Mean % relative MMP-13 secretion (72h)” value is recorded as 110,57% in the assay on MMP-13 (10 µM Naringin (free or encapsulated)), 113.28% in the assay on MMP-13 (50 µM Naringin (free or encapsulated)) and 102,77% in the assay on MMP-13 (200 µM). For the same molecule, the “decrease in MMP-13 (in words)” value in the assay with MMP-13 (TNFα-stimulated chondrocytes) is “did not give a detectable decrease”. For the same molecule, the “von Frey-paw withdrawal threshold” value in assay [1] (11 days (before treatment)) was 63 g; in assay [1] (40 days (half of experimental protocol), 10 mg/kg (S1, ibuprofen i.p.; nanoparticles i.a.)) it was 81,12 g; in assay [1] (70 days (end of experimental protocol), 10 mg/kg (S1, ibuprofen i.p.; nanoparticles i.a.)) it was 83,96 g; in assay [1] (left-control paw), 88,68 g. In assay [1] (rat, in vivo), the “paw withdrawal thresholds after commencement of treatment (in words)” value is recorded as “presented an increase”. For the same molecule, the “Paw Withdrawal Threshold (%)” value in assay [1] (11 days (before treatment)) was 41,53%; in assay [1] (40 days (half of experimental protocol)), 45,55%; in assay [1] (70 days (end of experimental protocol)), 45,95%.
